Experimental data: PubChem BioAssay AID588626 (NMMLSC, 2011)
pEC50: −log10 of the molar value. Activity calls are given as the source filed them.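 Rule for the calls: active = half-effect potency at or under 10 µM with a response span of at least 30% after curve fit checks such as Hill slope 0.5 to 2; inactive = the rest.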

Biological target: Cell division control protein 42 homolog (Homo sapiens) (UniProt P60953)
Test: inhibitors of wildtype Cdc42 GTP binding, SAR follow-up, biochemical, bead multiplex, flow cytometry, round 2 (AID 588626)
Details: Bead-based flow cytometry, Bodipy-FL-GTP binding, EDTA buffer

Sequence of Cell division control protein 42 homolog (Homo sapiens) (P60953 whole entry, looked up): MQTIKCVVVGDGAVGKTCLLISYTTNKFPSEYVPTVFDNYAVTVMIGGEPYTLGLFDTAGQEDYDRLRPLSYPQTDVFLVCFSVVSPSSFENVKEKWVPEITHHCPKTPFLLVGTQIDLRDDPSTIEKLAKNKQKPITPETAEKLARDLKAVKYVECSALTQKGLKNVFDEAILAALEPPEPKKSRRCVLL

SMILES	pEC50
CC(C)(C)C1Cc2c(sc(NC(=S)NC(=O)c3ccccc3)c2C(=O)O)CO1 (stereo not drawn)	5.80
CC1Cc2c(sc(NC(=S)NC(=O)c3ccccc3)c2C(=O)O)CO1 (stereo not drawn)	4.75
Cc1cccc(C(=O)NC(=S)Nc2sc3c(c2C(=O)O)CC(C)(C)OC3)c1	5.23
CC1(C)Cc2c(sc(NC(=S)NC(=O)c3cccc(Br)c3)c2C(=O)O)CO1	4.71
Cc1ccccc1C(=O)NC(=S)Nc1sc2c(c1C(=O)O)CC(C)(C)OC2	5.57
Cc1ccc(C(=O)NC(=S)Nc2sc3c(c2C(=O)O)CC(C)(C)OC3)cc1	6.28
CC1(C)Cc2c(sc(NC(=S)NC(=O)c3ccccc3F)c2C(=O)O)CO1	5.13
CC1(C)Cc2c(sc(NC(=S)NC(=O)C3CCCCC3)c2C(=O)O)CO1	5.58

Same assay, conditions: Bead-based flow cytometry, Bodipy-FL-GTP binding, EDTA buffer; at 100 µM (top of the series)

SMILES	% response (GTP binding remaining)
CC1(C)Cc2c(sc(NC(=S)NC(=O)c3ccccc3Br)c2C(=O)O)CO1	inactive
O=C(NC(=S)Nc1sc2c(c1C(=O)O)CCOC2)c1ccccc1	inactive
O=C(NC(=S)Nc1sc2c(c1C(=O)O)CC1(CCCC1)OC2)c1ccccc1	inactive
COc1ccccc1C(=O)NC(=S)Nc1sc2c(c1C(=O)O)CC(C)(C)OC2	inactive
CCC1(C)Cc2c(sc(NC(=S)NC(=O)c3ccccc3)c2C(=O)O)CO1 (stereo not drawn)	inactive
CC1(C)CCc2sc(NC(=S)NC(=O)c3ccccc3)c(C(=O)O)c2C1	inactive
CC1(C)Cc2c(sc(NC(=S)NC(=O)c3ccc(F)cc3)c2C(=O)O)CO1	inactive
COc1ccc(C(=O)NC(=S)Nc2sc3c(c2C(=O)O)CC(C)(C)OC3)cc1	inactive
COc1cccc(C(=O)NC(=S)Nc2sc3c(c2C(=O)O)CC(C)(C)OC3)c1	inactive
CC1(C)Cc2c(sc(NC(=O)NC(=O)c3ccccc3)c2C(=O)O)CO1	inactive
CC1(C)Cc2c(sc(NC(=S)Nc3ccccc3)c2C(=O)O)CO1	inactive
CC1(C)Cc2c(sc(NC(=S)NC(=O)c3ccc(Br)cc3)c2C(=O)O)CO1	inactive
CC1(C)Cc2c(sc(NC(=S)NC(=O)c3cccs3)c2C(=O)O)CO1	inactive
CC1(C)Cc2c(sc(NC(=S)NC(=O)c3cccc(F)c3)c2C(=O)O)CO1	inactive
CC1(C)Cc2c(sc(NC(=S)NC(=O)c3ccco3)c2C(=O)O)CO1	inactive
